Read-outs that look alike come from different tables or passages of the source.
Legend:
Assay in all cases: SelectScreen Kinase Profiling, single point inhibition and IC50 for off-target kinases
Type in all cases: biochemical
[1] = target: off-target kinases (Homo sapiens, UniProt P08581); conditions: MET (cMet), ZLYTE, ATP Km app
[2] = target: off-target kinases (Homo sapiens, UniProt Q92918); conditions: MAP4K1 (HPK1), LanthaScreen Binding
[3] = target: off-target kinases (Homo sapiens, UniProt Q04912); conditions: MST1R (RON), ZLYTE, ATP Km app
off-target kinases (Homo sapiens, UniProt Q04912), sequence (Q04912 25-1400): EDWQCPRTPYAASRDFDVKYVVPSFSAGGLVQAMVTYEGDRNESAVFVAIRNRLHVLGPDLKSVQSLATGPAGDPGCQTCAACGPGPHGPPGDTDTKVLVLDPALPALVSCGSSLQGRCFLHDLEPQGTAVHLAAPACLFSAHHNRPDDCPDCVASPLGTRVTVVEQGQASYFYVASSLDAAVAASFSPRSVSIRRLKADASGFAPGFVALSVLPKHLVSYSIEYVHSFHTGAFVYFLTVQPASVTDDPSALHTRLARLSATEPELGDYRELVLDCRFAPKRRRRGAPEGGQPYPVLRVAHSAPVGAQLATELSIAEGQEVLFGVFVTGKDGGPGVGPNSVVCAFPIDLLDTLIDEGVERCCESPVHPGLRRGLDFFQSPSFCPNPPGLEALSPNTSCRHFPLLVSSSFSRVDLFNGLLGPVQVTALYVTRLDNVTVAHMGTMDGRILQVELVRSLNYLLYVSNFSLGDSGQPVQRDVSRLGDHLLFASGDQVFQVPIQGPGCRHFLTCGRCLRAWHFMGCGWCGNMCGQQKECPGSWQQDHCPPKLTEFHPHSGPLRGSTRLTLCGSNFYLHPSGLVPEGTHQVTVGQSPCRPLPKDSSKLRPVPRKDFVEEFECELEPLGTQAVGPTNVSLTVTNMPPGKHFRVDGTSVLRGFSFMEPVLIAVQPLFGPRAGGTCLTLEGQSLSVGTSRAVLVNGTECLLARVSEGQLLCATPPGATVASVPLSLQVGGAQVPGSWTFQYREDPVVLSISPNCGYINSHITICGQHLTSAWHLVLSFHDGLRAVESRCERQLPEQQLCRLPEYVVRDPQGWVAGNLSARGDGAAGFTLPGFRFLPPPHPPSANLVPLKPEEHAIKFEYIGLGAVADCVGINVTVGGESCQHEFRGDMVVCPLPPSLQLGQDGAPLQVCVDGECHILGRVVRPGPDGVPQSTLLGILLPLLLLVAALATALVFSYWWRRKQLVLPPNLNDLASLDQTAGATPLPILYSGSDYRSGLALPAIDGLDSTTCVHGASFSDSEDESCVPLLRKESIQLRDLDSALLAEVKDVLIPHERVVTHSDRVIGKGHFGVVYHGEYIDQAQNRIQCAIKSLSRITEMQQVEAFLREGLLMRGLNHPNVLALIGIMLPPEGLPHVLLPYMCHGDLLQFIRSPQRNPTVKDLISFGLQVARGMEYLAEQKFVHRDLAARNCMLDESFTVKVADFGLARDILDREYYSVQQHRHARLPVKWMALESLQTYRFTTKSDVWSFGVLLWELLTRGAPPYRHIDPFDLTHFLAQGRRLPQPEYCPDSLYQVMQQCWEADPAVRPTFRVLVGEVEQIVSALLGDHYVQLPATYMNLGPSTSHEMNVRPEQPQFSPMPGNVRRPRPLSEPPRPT

[4] = target: off-target kinases (Homo sapiens, UniProt Q9Y4K4); conditions: MAP4K5 (KHS1), ZLYTE, ATP Km app
[5] = target: off-target kinases (Homo sapiens, UniProt P30291); conditions: WEE1, LanthaScreen Binding
off-target kinases (Homo sapiens, UniProt P30291), sequence (P30291 whole entry): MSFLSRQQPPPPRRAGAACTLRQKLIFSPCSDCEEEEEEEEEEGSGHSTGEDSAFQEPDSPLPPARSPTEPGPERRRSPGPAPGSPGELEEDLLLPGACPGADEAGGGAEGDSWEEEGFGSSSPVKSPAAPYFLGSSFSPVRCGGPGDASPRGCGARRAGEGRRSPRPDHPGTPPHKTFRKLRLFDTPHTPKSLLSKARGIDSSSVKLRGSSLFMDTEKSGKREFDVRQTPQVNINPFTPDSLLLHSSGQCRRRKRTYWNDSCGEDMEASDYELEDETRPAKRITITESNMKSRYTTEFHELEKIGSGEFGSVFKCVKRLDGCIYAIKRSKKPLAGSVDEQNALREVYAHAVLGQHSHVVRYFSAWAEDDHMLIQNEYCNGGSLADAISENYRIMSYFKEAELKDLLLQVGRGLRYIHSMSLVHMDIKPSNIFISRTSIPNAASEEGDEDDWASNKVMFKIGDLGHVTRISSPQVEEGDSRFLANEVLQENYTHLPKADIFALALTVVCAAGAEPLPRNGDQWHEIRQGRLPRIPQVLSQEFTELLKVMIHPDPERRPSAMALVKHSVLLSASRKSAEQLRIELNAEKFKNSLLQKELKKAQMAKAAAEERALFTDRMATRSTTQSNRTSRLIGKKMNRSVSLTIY

[6] = target: off-target kinases (Homo sapiens, UniProt O00750); conditions: PIK3C2B (PI3K-C2 beta), Adapta, ATP 10
[7] = target: off-target kinases (Homo sapiens, UniProt Q07912); conditions: TNK2 (ACK), LanthaScreen Binding
off-target kinases (Homo sapiens, UniProt Q07912), sequence (Q07912 whole entry): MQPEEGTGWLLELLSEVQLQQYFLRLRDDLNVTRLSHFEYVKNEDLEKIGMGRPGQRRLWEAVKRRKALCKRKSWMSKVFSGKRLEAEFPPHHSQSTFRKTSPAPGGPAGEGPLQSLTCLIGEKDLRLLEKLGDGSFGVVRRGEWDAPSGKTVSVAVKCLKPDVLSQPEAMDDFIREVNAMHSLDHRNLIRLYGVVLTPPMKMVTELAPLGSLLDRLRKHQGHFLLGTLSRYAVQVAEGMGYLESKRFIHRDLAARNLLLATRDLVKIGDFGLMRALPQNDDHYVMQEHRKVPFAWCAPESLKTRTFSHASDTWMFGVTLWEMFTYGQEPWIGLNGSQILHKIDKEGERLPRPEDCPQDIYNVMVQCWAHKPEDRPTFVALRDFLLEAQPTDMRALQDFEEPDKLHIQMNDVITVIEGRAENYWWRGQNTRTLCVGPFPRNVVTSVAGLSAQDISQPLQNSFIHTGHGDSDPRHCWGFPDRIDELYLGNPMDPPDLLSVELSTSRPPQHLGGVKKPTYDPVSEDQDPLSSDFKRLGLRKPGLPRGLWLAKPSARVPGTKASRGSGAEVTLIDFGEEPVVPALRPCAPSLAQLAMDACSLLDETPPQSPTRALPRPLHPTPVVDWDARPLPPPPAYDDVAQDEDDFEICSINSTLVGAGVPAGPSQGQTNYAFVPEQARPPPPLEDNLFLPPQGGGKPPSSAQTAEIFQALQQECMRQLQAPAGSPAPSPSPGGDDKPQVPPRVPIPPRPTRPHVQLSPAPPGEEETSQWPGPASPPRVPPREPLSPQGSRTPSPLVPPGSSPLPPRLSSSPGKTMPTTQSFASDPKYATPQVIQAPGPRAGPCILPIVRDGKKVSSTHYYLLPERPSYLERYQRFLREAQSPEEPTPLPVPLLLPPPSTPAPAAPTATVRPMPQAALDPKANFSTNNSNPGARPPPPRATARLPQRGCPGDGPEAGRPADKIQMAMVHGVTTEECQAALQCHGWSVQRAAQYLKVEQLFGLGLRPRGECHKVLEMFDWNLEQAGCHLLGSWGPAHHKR

[8] = target: off-target kinases (Homo sapiens, UniProt O75716); conditions: STK16 (PKL12), LanthaScreen Binding
[9] = target: off-target kinases (Homo sapiens, UniProt P49336); conditions: CDK8/cyclin C, LanthaScreen Binding
off-target kinases (Homo sapiens, UniProt P49336), sequence (P49336 whole entry): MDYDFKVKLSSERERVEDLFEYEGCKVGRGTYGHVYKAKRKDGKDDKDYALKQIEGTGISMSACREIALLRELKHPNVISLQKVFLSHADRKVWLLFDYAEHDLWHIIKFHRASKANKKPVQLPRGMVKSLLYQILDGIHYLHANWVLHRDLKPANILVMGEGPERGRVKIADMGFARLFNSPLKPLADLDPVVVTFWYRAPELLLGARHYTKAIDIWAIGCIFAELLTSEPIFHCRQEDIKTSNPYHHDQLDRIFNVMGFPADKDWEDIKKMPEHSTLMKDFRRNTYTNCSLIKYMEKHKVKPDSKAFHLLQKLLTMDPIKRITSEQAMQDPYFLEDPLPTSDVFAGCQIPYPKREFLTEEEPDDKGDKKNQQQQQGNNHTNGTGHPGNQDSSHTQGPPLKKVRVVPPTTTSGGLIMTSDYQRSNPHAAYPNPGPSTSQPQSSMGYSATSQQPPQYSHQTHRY

[10] = target: off-target kinases (Homo sapiens, UniProt P00519, H396P); conditions: ABL1 H396P, LanthaScreen Binding

off-target kinases (Homo sapiens, UniProt P08581), sequence (P08581 25-1390): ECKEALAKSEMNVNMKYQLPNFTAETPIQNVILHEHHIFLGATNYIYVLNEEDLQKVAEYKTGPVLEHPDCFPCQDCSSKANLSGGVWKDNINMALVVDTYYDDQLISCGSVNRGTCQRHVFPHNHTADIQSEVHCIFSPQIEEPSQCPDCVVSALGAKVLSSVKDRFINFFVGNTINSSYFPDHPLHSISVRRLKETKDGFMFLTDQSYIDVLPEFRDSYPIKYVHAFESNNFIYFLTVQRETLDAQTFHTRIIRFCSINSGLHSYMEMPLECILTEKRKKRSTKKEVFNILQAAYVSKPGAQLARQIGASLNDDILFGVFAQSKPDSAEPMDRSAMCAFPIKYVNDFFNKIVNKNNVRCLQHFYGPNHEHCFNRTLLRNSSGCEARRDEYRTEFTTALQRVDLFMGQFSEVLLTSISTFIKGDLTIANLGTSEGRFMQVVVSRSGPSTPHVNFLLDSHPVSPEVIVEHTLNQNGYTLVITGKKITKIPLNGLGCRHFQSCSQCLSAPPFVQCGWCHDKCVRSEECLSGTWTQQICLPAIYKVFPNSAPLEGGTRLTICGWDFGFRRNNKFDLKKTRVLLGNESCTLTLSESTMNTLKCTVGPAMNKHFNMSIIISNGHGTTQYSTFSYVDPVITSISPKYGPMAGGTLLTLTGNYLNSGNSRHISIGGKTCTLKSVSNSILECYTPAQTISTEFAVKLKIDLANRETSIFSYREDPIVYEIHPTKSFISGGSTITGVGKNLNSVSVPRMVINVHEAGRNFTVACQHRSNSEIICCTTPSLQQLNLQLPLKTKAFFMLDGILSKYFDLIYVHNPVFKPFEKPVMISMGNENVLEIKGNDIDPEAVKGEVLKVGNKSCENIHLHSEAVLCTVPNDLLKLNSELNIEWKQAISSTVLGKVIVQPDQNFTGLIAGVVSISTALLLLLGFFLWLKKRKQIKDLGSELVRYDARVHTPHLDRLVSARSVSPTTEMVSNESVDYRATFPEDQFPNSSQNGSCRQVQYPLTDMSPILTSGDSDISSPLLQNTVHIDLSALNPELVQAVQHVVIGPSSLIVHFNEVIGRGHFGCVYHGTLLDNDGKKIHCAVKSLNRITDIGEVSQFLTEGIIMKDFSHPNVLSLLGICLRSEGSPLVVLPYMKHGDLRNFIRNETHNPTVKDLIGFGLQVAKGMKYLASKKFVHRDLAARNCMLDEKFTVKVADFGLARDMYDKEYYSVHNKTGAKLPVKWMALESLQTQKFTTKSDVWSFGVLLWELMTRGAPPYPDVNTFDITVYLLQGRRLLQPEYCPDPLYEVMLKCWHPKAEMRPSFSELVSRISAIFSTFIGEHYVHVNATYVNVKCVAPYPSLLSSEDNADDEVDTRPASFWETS

SMILES: N#Cc1cc(-c2ncnc(Nc3ccc(N4CCN(C5COC5)CC4)cc3)n2)ccc1OC1CCOCC1 [Compound 1, 5-(4-((4-(4-(oxetan-3-yl)piperazin-1-yl)phenyl)amino)-1,3,5-triazin-2-yl)-2-((tetrahydro-2H-pyran-4-yl)oxy)benzonitrile]
- inhibition ([1]; read-out: % Inhibition 1): 30%
- inhibition ([1]; read-out: % Inhibition 2): 33%
- inhibition ([1]; read-out: % Inhibition Avg): 31%
- inhibition ([2]; read-out: % Inhibition 1): 59%
- inhibition ([2]; read-out: % Inhibition 2): 55%
- inhibition ([2]; read-out: % Inhibition Avg): 57%
- inhibition ([3]; read-out: % Inhibition 1): 38%
- inhibition ([3]; read-out: % Inhibition 2): 38%
- inhibition ([3]; read-out: % Inhibition Avg): 38%
- inhibition ([4]; read-out: % Inhibition 1): 11%
- inhibition ([4]; read-out: % Inhibition 2): 12%
- inhibition ([4]; read-out: % Inhibition Avg): 12%
- inhibition ([5]; read-out: % Inhibition 1): 28%
- inhibition ([5]; read-out: % Inhibition 2): 36%
- inhibition ([5]; read-out: % Inhibition Avg): 32%
- inhibition ([6]; read-out: % Inhibition 1): 3%
- inhibition ([6]; read-out: % Inhibition 2): -7%
- inhibition ([6]; read-out: % Inhibition Avg): -2%
- inhibition ([7]; read-out: % Inhibition 1): 25%
- inhibition ([7]; read-out: % Inhibition 2): 26%
- inhibition ([7]; read-out: % Inhibition Avg): 25%
- inhibition ([8]; read-out: % Inhibition 1): 95%
- inhibition ([8]; read-out: % Inhibition 2): 93%
- inhibition ([8]; read-out: % Inhibition Avg): 94%
- inhibition ([9]; read-out: % Inhibition 1): 0%
- inhibition ([9]; read-out: % Inhibition 2): 3%
- inhibition ([9]; read-out: % Inhibition Avg): 1%
- inhibition ([10]; read-out: % Inhibition 1): 58%
- inhibition ([10]; read-out: % Inhibition 2): 60%
- inhibition ([10]; read-out: % Inhibition Avg): 59%

From US11572590B2, “Methods for evaluating tumor cell spheroids using 3D microfluidic cell culture device” (Dana-Farber Cancer Institute, Inc., priority 2017, dated 2023)
